Experiments:
[1] = test system: MT4; test: Ability to inhibit the spread of viral infection in MT-4 human T-lymphoid cells infected with HIV IIIb; assay type: functional
[2] = biological target: Human immunodeficiency virus type 1 protease (Human immunodeficiency virus 1, UniProt Q72874); test: Ability to prevent cleavage of acompound by the HIV protease wild-type enzyme

Work on `Cc1cc(O)cc(C)c1CNC(=O)[C@H](Cc1ccccc1)C[C@@H](O)CN1CCN(S(=O)(=O)c2ccc3c(c2)CCN3c2ncccn2)C[C@@H]1C(=O)NC(C)(C)C` yielded a ClC95 [1] of 31.3 nM and an IC50 [2] of 0.2 nM.

`CC(C)(C)NC(=O)[C@H]1CN(S(=O)(=O)c2cccs2)CCN1C[C@H](O)C[C@@H](Cc1ccccc1)C(=O)NC1c2ccccc2C[C@H]1O` (stereo partly drawn) gave a ClC95 [1] of 31.3 nM and an IC50 [2] of 0.1 nM.

For `CSc1nccc(-c2ccc(S(=O)(=O)N3CCN(C[C@H](O)C[C@@H](Cc4ccccc4)C(=O)NCc4c(C)cc(O)cc4C)[C@@H](C(=O)NC(C)(C)C)C3)s2)n1`, the ClC95 [1] was 62.5 nM and the IC50 [2] was less than 0.2 nM.

Compound `Cc1cc(O)cc(C)c1CNC(=O)[C@H](Cc1ccccc1)C[C@@H](O)CN1CCN(S(=O)(=O)c2cccs2)C[C@@H]1C(=O)NC(C)(C)C` has a ClC95 [1] of 62.5 nM and an IC50 [2] of 0.47 nM.

Source: ChEMBL document CHEMBL1135201, “Combinatorial library of indinavir analogues: replacement for the aminoindanol at P2'” (Bioorg Med Chem Lett, 2002)
